# Values quoted from earlier work, collected in patent US4241056A, “Penicillins and salts thereof” (Boehringer Ingelheim GmbH, priority 1978, dated 1980).
# Structures can show the parent of a compound that is named as a salt.
# Experiments:
# Klebsiella = settings: cited from earlier work
# various kinds of E. coli = settings: cited from earlier work
# Pseudomonas = settings: in vivo as well as in vitro; cited from earlier work
SMILES,activity against Klebsiella (Klebsiella),activity against various kinds of E. coli (various kinds of E. coli),antipseudomonal activity (Pseudomonas)
"CC1(C)S[C@@H]2[C@H](NC(=O)[C@H](NC(=O)N3CCNC3=O)c3ccccc3)C(=O)N2[C@H]1C(=O)O [Azlocillin, 6-{D-α-[(2-oxo-imidazolidine-1-yl)carbonylamino]-4-phenyl-acetamino}-pencillanic acid sodium salt]",only a moderate activity,only a moderate activity,
CC1(C)S[C@@H]2[C@H](NC(=O)[C@H](C(=O)O)c3ccsc3)C(=O)N2[C@H]1C(=O)O [Ticarcillin],,,only a poor activity
